Tests used:
[1] = molecular target: T1, bilirubin oxidase from a strain belonging to the genus Myrothecium (Albifimbria verrucaria, UniProt Q12737); experiment: Decolorization / degradation / polymerization of pigments and lignin by bilirubin oxidase (comparison); format: biochemical; conditions: reaction pH 8.0; without sign = degradation or decolorization, minus = polymerization activity
T1 sequence (Q12737 39-572): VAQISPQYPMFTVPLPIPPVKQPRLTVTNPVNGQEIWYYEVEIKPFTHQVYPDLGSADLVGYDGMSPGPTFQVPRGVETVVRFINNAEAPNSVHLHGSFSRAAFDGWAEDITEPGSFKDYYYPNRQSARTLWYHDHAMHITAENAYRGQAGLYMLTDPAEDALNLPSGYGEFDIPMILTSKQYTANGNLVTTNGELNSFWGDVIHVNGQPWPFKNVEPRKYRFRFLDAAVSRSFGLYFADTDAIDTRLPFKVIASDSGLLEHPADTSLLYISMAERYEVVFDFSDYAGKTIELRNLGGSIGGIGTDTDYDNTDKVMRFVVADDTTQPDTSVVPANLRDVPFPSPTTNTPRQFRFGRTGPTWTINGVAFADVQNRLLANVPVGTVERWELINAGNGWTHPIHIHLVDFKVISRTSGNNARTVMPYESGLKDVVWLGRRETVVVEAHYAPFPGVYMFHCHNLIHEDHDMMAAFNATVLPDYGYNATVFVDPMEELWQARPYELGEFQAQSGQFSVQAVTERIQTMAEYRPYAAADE
Experimental: (§1) Concretely, 950 μl of 105.3 mM sodium phosphate buffer (pH 7.0) containing a substrate adjusted to have a final concentration as shown in Table 2 was pre-incubated at 25° C. for 5 minutes. Next, 50 μl of the culture solution was added to the resulting product, and thereafter, the mixture was reacted in a cuvette. The absorbance for each substrate was determined at a measuring wavelength with a spectrophotometer (manufactured by Shimadzu Corporation, trade name: UV-2450). For the comparison, the examination was also made for bilirubin oxidase from a strain belonging to the genus Myrothecium in the same manner by replacing the above-mentioned buffer with 105.3 mM Tris-HCl buffer (pH 8.0).
(§2) Here, 1 U (unit) of the activity was defined as an amount for increasing the absorbance by 1 per one minute. In Table 3, a specific activity shown without a sign indicates degradation activity or decolorization activity, and a specific activity shown with—(minus) indicates polymerization activity.

[2] = test system: culture of Flammulina velutipes strain IFO 30601; experiment: Decolorization / oxidative degradation / oxidative polymerization of pigments and lignin by the culture; format: biochemical; conditions: for reaction of the substrate catalyzed by the culture (in words): neutral conditions; for Specific Activity, Culture: reaction pH 7.0, 25° C., without sign = degradation or decolorization, minus = polymerization activity
Text: The decolorization activity on the respective dyes can be evaluated by measuring as the dye, Evans' Blue, Acid Blue 80, Remazol Brilliant Blue R and Acid Violet 17 in the step c) for their absorbance at 600 nm, 600 nm, 600 nm and 550 nm respectively. In addition, regarding the lignin, the oxidative degradation activity on the respective dyes can be evaluated by measuring the absorbance at 450 nm in the step c). The oxidative polymerization activity on the respective dyes can be evaluated by measuring as the dye, Indigo Carmine and Natural Orange 6 in the step c) for their absorbance at 600 nm and 450 nm respectively.
Next, chemical changes of various substrates generated by the action of the culture for the substrate specificity of the culture obtained in (2) of Example 1 was examined by determining a change in the absorbance of the buffer containing each substrate.
As the substrate, commercially available pigments (Evans' Blue, Acid Blue 80, Remazol Brilliant Blue R, Indigo Carmine, Acid Violet 17, Natural Orange) and lignin (trade name: Lignin Alkali, manufactured by Tokyo Kasei) were used.
as §1, §2

| Structure (SMILES) | Specific Activity, Bilirubin Oxidase from Strain Belonging to Genus Myrothecium [1] [U/mg Protein] | reaction of the substrate catalyzed by the culture (in words) [2] | Specific Activity, Culture [2] [U/mg Protein] | specificity of the culture compared with bilirubin oxidase from the genus Myrothecium ([2]; Table 3) |
| --- | --- | --- | --- | --- |
| O=C1C=C(O)C(=O)c2ccccc21 [Natural Orange 6] | −0.11 | oxidative polymerization reaction | −0.18 |  |
| O=C1/C(=C2\Nc3ccc(S(=O)(=O)[O-])cc3C2=O)Nc2ccc(S(=O)(=O)[O-])cc21.[Na+].[Na+] [Indigo Carmine] | 0.46 | oxidative polymerization reaction | −0.22 | significantly differs |

Reference: patent publication US20050170485A1, “Culture having phenol oxidase-like activity” (priority 2002, published 2005)
